Test system: 266295-075-R-J1-PDC spheroid viability
Experiment: Anticancer human tumor 266295-075-R-J1-PDC patient-derived head and neck squamous carcinoma cell line growth inhibition [POLQ]
Details: spheroids with HUVEC and MSC; for IC50: curve of first compound; for viability, T/C: stronger effect = lower value; active = viability on the fitted dose curve at most 10% of control; inactive = the rest
Outline: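 Complex spheroid viability model combining PDC tumour cells with endothelial (HUVEC) and MSC stromal cells. Novobiocin, ART-558 or RP6685 were tested singly and in combination with standard and investigational anticancer drugs. Each was titrated in half-log steps from near clinical Cmax, or from 10 microM where Cmax was unknown.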
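Note: spheroids exposed to compounds for seven days before readout.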

Nc1ccn(C2OC(CO)C(O)C2(F)F)c(=O)n1 (configuration not stated) + Cc1cccc(N(C)C(=O)C2C(O)CCN2c2nc(C)cc(C(F)(F)F)c2C#N)c1
inactive: viability, T/C (second compound 0.0316 µM, first compound 0.0316 µM) 93.5% | viability, T/C (second compound 0.0316 µM, first compound 0.1 µM) 81.9% | viability, T/C (second compound 0.0316 µM, first compound 0.316 µM) 81.5% | viability, T/C (second compound 0.0316 µM, first compound 1 µM) 68.3% | viability, T/C (second compound 0.0316 µM, first compound 3.16 µM) 79.5% | viability, T/C (second compound 0.0316 µM, first compound 10 µM) 69.4% | viability, T/C (second compound 0.1 µM, first compound 0.0316 µM) 85.8% | viability, T/C (second compound 0.1 µM, first compound 0.1 µM) 93% | viability, T/C (second compound 0.1 µM, first compound 0.316 µM) 79.6% | viability, T/C (second compound 0.1 µM, first compound 1 µM) 76% | viability, T/C (second compound 0.1 µM, first compound 3.16 µM) 83.3% | viability, T/C (second compound 0.1 µM, first compound 10 µM) 73.7% | viability, T/C (second compound 0.316 µM, first compound 0.0316 µM) 87.8% | viability, T/C (second compound 0.316 µM, first compound 0.1 µM) 78.5% | viability, T/C (second compound 0.316 µM, first compound 0.316 µM) 77% | viability, T/C (second compound 0.316 µM, first compound 1 µM) 94.9% | viability, T/C (second compound 0.316 µM, first compound 3.16 µM) 76.6% | viability, T/C (second compound 0.316 µM, first compound 10 µM) 72.4% | viability, T/C (second compound 1 µM, first compound 0.0316 µM) 99.8% | viability, T/C (second compound 1 µM, first compound 0.1 µM) 82.8% | viability, T/C (second compound 1 µM, first compound 0.316 µM) 86% | viability, T/C (second compound 1 µM, first compound 1 µM) 84.7% | viability, T/C (second compound 1 µM, first compound 3.16 µM) 80.8% | viability, T/C (second compound 1 µM, first compound 10 µM) 80.2% | viability, T/C (second compound 3.16 µM, first compound 0.0316 µM) 90.6% | viability, T/C (second compound 3.16 µM, first compound 0.1 µM) 96.9% | viability, T/C (second compound 3.16 µM, first compound 0.316 µM) 72.8% | viability, T/C (second compound 3.16 µM, first compound 1 µM) 78.1% | viability, T/C (second compound 3.16 µM, first compound 3.16 µM) 91% | viability, T/C (second compound 3.16 µM, first compound 10 µM) 67.1% | viability, T/C (second compound 10 µM, first compound 0.0316 µM) 86.8% | viability, T/C (second compound 10 µM, first compound 0.1 µM) 88.4% | viability, T/C (second compound 10 µM, first compound 0.316 µM) 72% | viability, T/C (second compound 10 µM, first compound 1 µM) 75.1% | viability, T/C (second compound 10 µM, first compound 3.16 µM) 82.1% | viability, T/C (second compound 10 µM, first compound 10 µM) 68.2%
> 10 µM: IC50 (second compound 0.0316 µM) | IC50 (second compound 0.1 µM) | IC50 (second compound 0.316 µM) | IC50 (second compound 1 µM) | IC50 (second compound 3.16 µM) | IC50 (second compound 10 µM)
